From ChEMBL document CHEMBL1131258, “Synthesis and glutathione S-transferase structure-affinity relationships of nonpeptide and peptidase-stable glutathione analogues” (J Med Chem, 1998) come the findings set out here.

Molecules are shown by their SMILES.

In this experiment the test system is glutathione S-transferase (Schistosoma japonicum). Briefly: Affinity towards recombinant Glutathione S-transferase (GST) Enzyme; NA indicates No affinity.
`O=C(O)CC/C=C/C(CS)CCCCC(=O)O` (stereo not given): the IC50 result is “Not Active”.
The result for `O=C(O)CCCCC(CS)CCCCC(=O)O` reads “Not Active”; that for `O=C(O)CC/C=C/C(CO)CCCCC(=O)O` (stereo not given), “Not Active”.
The result for `O=C(O)CCCCCC(CS)CCCCC(=O)O` (stereo not given) reads “Not Active”; that for `O=C(O)CCCCCCC(CS)CCCC(=O)O` (stereo not given), “Not Active”.
